According to ChEMBL document CHEMBL1201862, “PubChem BioAssay data set” (2004):
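Step 1: Grow cells in 96-well plates. Step 2: Expose to compound for 48 hours at 5 concentrations. Step 3: Interpolate endpoints linearly; if unreached, use highest concentration. Here, GI50 denotes the concentration required for 50% inhibition of growth.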 Calls of active or inactive are those of the source. Cut-off read from the data, not from the text of the source: active = GI50 up to about 1.1 µM and inactive = higher.

Tests used:
Assay in all cases: NCI tumour cell line growth inhibition, 48 h
[1] = test system: COLO 205
[2] = test system: MDA-N
[3] = test system: U-251
[4] = test system: HCC 2998
[5] = test system: A549
[6] = test system: LOX IMVI
[7] = test system: K562
[8] = test system: Malme-3M
[9] = test system: CAKI-1
[10] = test system: MOLT-4
[11] = test system: NCI-H460
[12] = test system: HOP-62
[13] = test system: 786-0
[14] = test system: SN12C
[15] = test system: NCI-H23
[16] = test system: MDA-MB-435
[17] = test system: MDA-MB-231
[18] = test system: UACC-257
[19] = test system: HCT-116
[20] = test system: SK-OV-3
[21] = test system: SK-MEL-5
[22] = test system: ACHN
[23] = test system: HOP-92
[24] = test system: SK-MEL-2
[25] = test system: Hs-578T
[26] = test system: SK-MEL-28
[27] = test system: SNB-75
[28] = test system: SW-620
[29] = test system: EKVX
[30] = test system: OVCAR-4
[31] = test system: UACC-62
[32] = test system: KM12
[33] = test system: SF-539
[34] = test system: MCF7
[35] = test system: RXF 393
[36] = test system: DU-145
[37] = test system: PC-3
[38] = test system: HCT-15
[39] = test system: A498
[40] = test system: RPMI-8226
[41] = test system: UO-31
[42] = test system: CCRF-CEM
[43] = test system: OVCAR-3
[44] = test system: NCI-H226
[45] = test system: NCI/ADR-RES
[46] = test system: M14
[47] = test system: HL-60
[48] = test system: BT-549
[49] = test system: HT-29
[50] = test system: OVCAR-8
[51] = test system: TK-10
[52] = test system: SF-295
[53] = test system: SNB-19
[54] = test system: OVCAR-5
[55] = test system: SF-268
[56] = test system: SR
[57] = test system: NCI-H522
[58] = test system: IGROV-1

**Q.** Which results are given for `COc1c(N2CCCCC2)c2c(=O)c3ccccc3oc2c2cc(C)oc12`?
**A.** GI50 [1]: 4.09 µM (inactive); GI50 [2]: 23.7 µM (inactive); GI50 [3]: 24.4 µM (inactive); GI50 [4]: 18.5 µM (inactive); GI50 [5]: 18.2 µM (inactive); GI50 [6]: 14 µM (inactive); GI50 [7]: 6.1 µM (inactive); GI50 [8]: 19.3 µM (inactive); GI50 [9]: 14.1 µM (inactive); GI50 [10]: 4.03 µM (inactive); GI50 [11]: 7.78 µM (inactive); GI50 [12]: 9.91 µM (inactive); GI50 [13]: 6.35 µM (inactive); GI50 [14]: 24.8 µM (inactive); GI50 [15]: 18.5 µM (inactive); GI50 [16]: 28.6 µM (inactive); GI50 [17]: 5.26 µM (inactive); GI50 [18]: 33 µM (inactive); GI50 [19]: 2.34 µM (inactive); GI50 [20]: 28.1 µM (inactive); GI50 [21]: 16.5 µM (inactive); GI50 [22]: 5.6 µM (inactive); GI50 [23]: 7.45 µM (inactive); GI50 [24]: 15.9 µM (inactive); GI50 [25]: 18.4 µM (inactive); GI50 [26]: 25.4 µM (inactive); GI50 [27]: 11.3 µM (inactive); GI50 [28]: 8.81 µM (inactive); GI50 [29]: 25.9 µM (inactive); GI50 [30]: 13.9 µM (inactive); GI50 [31]: 17.8 µM (inactive); GI50 [32]: 16.5 µM (inactive); GI50 [33]: 35.9 µM (inactive); GI50 [34]: 16.7 µM (inactive); GI50 [35]: 15.6 µM (inactive); GI50 [36]: 17.9 µM (inactive); GI50 [37]: 12.7 µM (inactive); GI50 [38]: 16.7 µM; GI50 [39]: 16 µM (inactive); GI50 [40]: 5.94 µM (inactive); GI50 [41]: 11.3 µM (inactive); GI50 [42]: 8.63 µM (inactive); GI50 [43]: 18.8 µM (inactive); GI50 [44]: 13.3 µM (inactive); GI50 [45]: 15.3 µM (inactive); GI50 [46]: 14.8 µM (inactive); GI50 [47]: 20.9 µM (inactive); GI50 [48]: 21.5 µM (inactive); GI50 [49]: 3.87 µM (inactive); GI50 [50]: 16.9 µM (inactive); GI50 [51]: 37.6 µM (inactive); GI50 [52]: 18.8 µM (inactive); GI50 [53]: 40 µM (inactive); GI50 [54]: 23.5 µM (inactive); GI50 [55]: 17.9 µM (inactive)

**Q.** What does the source list for `Nc1ccc(-c2nc3ccc(F)cc3s2)cc1`?
**A.** GI50 [1]: 17.9 µM (inactive); GI50 [2]: 39.4 µM (inactive); GI50 [3]: 31.4 µM (inactive); GI50 [5]: 28.1 µM (inactive); GI50 [6]: 28.7 µM (inactive); GI50 [7]: 43.7 µM (inactive); GI50 [8]: 51.8 µM (inactive); GI50 [9]: 31.1 µM (inactive); GI50 [10]: > 100 µM (inactive); GI50 [56]: 77.3 µM (inactive); GI50 [12]: 29.5 µM (inactive); GI50 [13]: 35.4 µM (inactive); GI50 [14]: 33 µM (inactive); GI50 [15]: 31.3 µM (inactive); GI50 [16]: 25.9 µM (inactive); GI50 [17]: 25.3 µM (inactive); GI50 [18]: 43.2 µM (inactive); GI50 [19]: 36.6 µM (inactive); GI50 [57]: 30.8 µM (inactive); GI50 [21]: 15.3 µM (inactive); GI50 [22]: 21 µM (inactive); GI50 [23]: 29.4 µM (inactive); GI50 [24]: 19.8 µM (inactive); GI50 [25]: 20.2 µM (inactive); GI50 [26]: 60.1 µM (inactive); GI50 [27]: 31.5 µM (inactive); GI50 [28]: 51.9 µM (inactive); GI50 [29]: 32 µM (inactive); GI50 [31]: 16.6 µM (inactive); GI50 [32]: 25.2 µM (inactive); GI50 [33]: 36.4 µM (inactive); GI50 [36]: 23.7 µM (inactive); GI50 [37]: 17.2 µM (inactive); GI50 [38]: 35.8 µM; GI50 [39]: 30 µM (inactive); GI50 [40]: 18.6 µM (inactive); GI50 [41]: 26 µM (inactive); GI50 [42]: 19.1 µM (inactive); GI50 [43]: 22.5 µM (inactive); GI50 [45]: 33.9 µM (inactive); GI50 [46]: 36.4 µM (inactive); GI50 [48]: 39.4 µM (inactive); GI50 [49]: 38.2 µM (inactive); GI50 [50]: 48.3 µM (inactive); GI50 [51]: 26.6 µM (inactive); GI50 [52]: 25.5 µM (inactive); GI50 [53]: 32.8 µM (inactive); GI50 [55]: 37.3 µM (inactive)

**Q.** Which results are given for `O=C1/C(=C/c2cccc(Cl)c2)CCCc2ccccc21`?
**A.** GI50 [1]: 20.5 µM (inactive); GI50 [2]: 16.9 µM (inactive); GI50 [3]: 15.8 µM (inactive); GI50 [4]: 17.2 µM (inactive); GI50 [5]: 26.5 µM (inactive); GI50 [6]: 17.8 µM (inactive); GI50 [7]: 14.3 µM (inactive); GI50 [8]: 19.1 µM (inactive); GI50 [9]: 24.1 µM (inactive); GI50 [10]: 15.2 µM (inactive); GI50 [11]: 15.7 µM (inactive); GI50 [58]: 15.4 µM (inactive); GI50 [56]: 11.6 µM (inactive); GI50 [12]: 21.6 µM (inactive); GI50 [13]: 17.8 µM (inactive); GI50 [14]: 18.2 µM (inactive); GI50 [15]: 16.1 µM (inactive); GI50 [16]: 16.2 µM (inactive); GI50 [17]: 18.2 µM (inactive); GI50 [18]: 19.1 µM (inactive); GI50 [19]: 12.9 µM (inactive); GI50 [20]: 45.8 µM (inactive); GI50 [57]: 14.5 µM (inactive); GI50 [22]: 16.1 µM (inactive); GI50 [23]: 21.1 µM (inactive); GI50 [24]: 17.4 µM (inactive); GI50 [25]: 15.5 µM (inactive); GI50 [26]: 17.3 µM (inactive); GI50 [27]: 15.6 µM (inactive); GI50 [28]: 16.9 µM (inactive); GI50 [29]: 16.7 µM (inactive); GI50 [30]: 15.8 µM (inactive); GI50 [31]: 13.7 µM (inactive); GI50 [32]: 17.9 µM (inactive); GI50 [33]: 17.9 µM (inactive); GI50 [34]: 6.03 µM (inactive); GI50 [36]: 19.2 µM (inactive); GI50 [37]: 18.3 µM (inactive); GI50 [38]: 17.2 µM; GI50 [40]: 8.26 µM (inactive); GI50 [41]: 16.1 µM (inactive); GI50 [42]: 10.2 µM (inactive); GI50 [43]: 23.7 µM (inactive); GI50 [44]: 16.1 µM (inactive); GI50 [45]: 18.4 µM (inactive); GI50 [46]: 16.3 µM (inactive); GI50 [47]: 11.9 µM (inactive); GI50 [48]: 19.7 µM (inactive); GI50 [49]: 15.8 µM (inactive); GI50 [50]: 18.3 µM (inactive); GI50 [51]: 18 µM (inactive); GI50 [52]: 17.5 µM (inactive); GI50 [53]: 14.9 µM (inactive); GI50 [54]: 16.5 µM (inactive); GI50 [55]: 16.8 µM (inactive)
